Like-named read-outs stand apart in the source and are kept apart here.
Columns and labels:
SR [1] = system: SR
HL-60(TB) [2] = system: HL-60(TB)
HS 578T [3] = assay: cells; conditions: Homo sapiens; for CC50: read-out: LC50
SW-620 [4] = system: SW-620
K-562 [5] = system: K-562
SR [6] = assay: cells; conditions: Homo sapiens; for CC50: read-out: LC50
SK-MEL-28 [7] = system: SK-MEL-28
SK-MEL-28 [8] = assay: cells; conditions: Homo sapiens
cells = conditions: Homo sapiens
SW-620 [9] = assay: cells; conditions: Homo sapiens
MOLT-4 [10] = system: MOLT-4
MOLT-4 [11] = assay: cells; conditions: Homo sapiens
[12] = system: 60 different human tumor cell lines (the NCI 60); assay: cells; conditions: read-out: LC50 value for each cell line
K-562 [13] = assay: cells; conditions: Homo sapiens
HS 578T [14] = system: HS 578T
HL-60(TB) [15] = assay: cells; conditions: Homo sapiens
MDA-MB-468 = assay: NCI 60 in vitro screen (SRB), Breast Cancer; type: cell-based, human
Experimental: Mean ODtzero=The average of optical density measurements SRB-derived color just before exposure of cells to the test compound. Mean ODtest=The average of optical density measurement of SRB-derived color after 48 hours exposure of cells to the test compound. Mean ODctrl=The average of optical density measurements of SRB-derived color after 48 hours with no exposure of cells to the test compound.

PC-3 [16] = system: PC-3
PC-3 [17] = assay: cells; conditions: Homo sapiens
PHKG2 = PHKG2 (Homo sapiens, UniProt P15735); assay: Ambit kinase phage display ATP-binding-site ligand binding assay; conditions: read-out: percent inhibition of binding
Text: (§1) This assay is based on ligand-affinity/protein kinase phage display and was employed essentially as described by Fabian et. al [Nature Biotech. […] In this assay, protein kinases are cloned into T7 bacteriophage which express the kinase fusion proteins on the phage capsid. T7 kinase-tagged phage are then screened for binding to ATP-binding-site ligands that have been immobilized on a solid support. Phage are screened for binding to the anchored ligands both in the presence of test compound and in its absence (control). Elution of the bound phage by free ligand (ATP-binding site ligand that is not immobilized on a solid support) followed by determination of the phage titre provides a reliable measure of the ability of test compounds to block binding of target kinases to resin-bound ATP-binding-site ligands.
(§2) T7 kinase-tagged phage strains were grown in parallel in microtiter plates in a proprietary bacterial host derived from E. Coli strain BL21. E. Coli were grown to a log phase, infected with T7 kinase-tagged phage, and incubated while shaking at 32° C. until bacterial lysis (approx. 90 min). Lysates were centrifuged (6,000 g) and filtered (0.2 μm). […] The phage titre of the eluates was measured by quantitative PCR or by plaque assays. […]

ERK2 = ERK2 (Homo sapiens, UniProt P28482); assay: as above; conditions: read-out: percent inhibition of binding
Text: (§3) In this assay, protein kinases are cloned into T7 bacteriophage which express the kinase fusion proteins on the phage capsid. T7 kinase-tagged phage are then screened for binding to ATP-binding-site ligands that have been immobilized on a solid support. Phage are screened for binding to the anchored ligands both in the presence of test compound and in its absence (control). Elution of the bound phage by free ligand (ATP-binding site ligand that is not immobilized on a solid support) followed by determination of the phage titre provides a reliable measure of the ability of test compounds to block binding of target kinases to resin-bound ATP-binding-site ligands.
(§4) T7 kinase-tagged phage strains were grown in parallel in microtiter plates in a proprietary bacterial host derived from E. Coli strain BL21. E. Coli were grown to a log phase, infected with T7 kinase-tagged phage, and incubated while shaking at 32° C. until bacterial lysis (approx. 90 min). Lysates were centrifuged (6,000 g) and filtered (0.2 μm). Small molecule ATP-binding-site-specific ligands were anchored to solid supports via a two step process beginning with biotin conjugation followed by treatment of the biotin/small molecule conjugate with streptavidin-coated magnetic beads. […] The phage titre of the eluates was measured by quantitative PCR or by plaque assays. […]

EGFR = EGFR (Homo sapiens, UniProt P00533); assay: as above; conditions: read-out: % Inhibition of binding to ATP-binding-site ligand
Text: as §1, §2

TYK2 = TYK2 (Homo sapiens, UniProt P29597); assay: as above; conditions: read-out: % Inhibition of binding to ATP-binding-site ligand
Text: as §1, §2

MAP4K5 = MAP4K5 (Homo sapiens, UniProt Q9Y4K4); assay: as above; conditions: read-out: percent inhibition of binding
Text: as §1, §2

CIT = CIT (Homo sapiens, UniProt O14578); assay: as above; conditions: read-out: percent inhibition of binding
Text: as §3, §4

CSNK1G2 = CSNK1G2 (Homo sapiens, UniProt P78368); assay: as above; conditions: read-out: % Inhibition of binding to ATP-binding-site ligand
Text: as §3, §4

TYK2(Kin.Dom.1) = TYK2(Kin.Dom.1) (Homo sapiens, UniProt P29597); assay: as above; conditions: read-out: percent inhibition of binding
Text: as §3, §4

[18] = Log10 Concentration −4.0, Molar
[19] = Log10 Concentration −5.0, Molar
[20] = Log10 Concentration −6.0, Molar
[21] = Log10 Concentration −7.0, Molar
[22] = Log10 Concentration −8.0, Molar

CIT, sequence (O14578 whole entry): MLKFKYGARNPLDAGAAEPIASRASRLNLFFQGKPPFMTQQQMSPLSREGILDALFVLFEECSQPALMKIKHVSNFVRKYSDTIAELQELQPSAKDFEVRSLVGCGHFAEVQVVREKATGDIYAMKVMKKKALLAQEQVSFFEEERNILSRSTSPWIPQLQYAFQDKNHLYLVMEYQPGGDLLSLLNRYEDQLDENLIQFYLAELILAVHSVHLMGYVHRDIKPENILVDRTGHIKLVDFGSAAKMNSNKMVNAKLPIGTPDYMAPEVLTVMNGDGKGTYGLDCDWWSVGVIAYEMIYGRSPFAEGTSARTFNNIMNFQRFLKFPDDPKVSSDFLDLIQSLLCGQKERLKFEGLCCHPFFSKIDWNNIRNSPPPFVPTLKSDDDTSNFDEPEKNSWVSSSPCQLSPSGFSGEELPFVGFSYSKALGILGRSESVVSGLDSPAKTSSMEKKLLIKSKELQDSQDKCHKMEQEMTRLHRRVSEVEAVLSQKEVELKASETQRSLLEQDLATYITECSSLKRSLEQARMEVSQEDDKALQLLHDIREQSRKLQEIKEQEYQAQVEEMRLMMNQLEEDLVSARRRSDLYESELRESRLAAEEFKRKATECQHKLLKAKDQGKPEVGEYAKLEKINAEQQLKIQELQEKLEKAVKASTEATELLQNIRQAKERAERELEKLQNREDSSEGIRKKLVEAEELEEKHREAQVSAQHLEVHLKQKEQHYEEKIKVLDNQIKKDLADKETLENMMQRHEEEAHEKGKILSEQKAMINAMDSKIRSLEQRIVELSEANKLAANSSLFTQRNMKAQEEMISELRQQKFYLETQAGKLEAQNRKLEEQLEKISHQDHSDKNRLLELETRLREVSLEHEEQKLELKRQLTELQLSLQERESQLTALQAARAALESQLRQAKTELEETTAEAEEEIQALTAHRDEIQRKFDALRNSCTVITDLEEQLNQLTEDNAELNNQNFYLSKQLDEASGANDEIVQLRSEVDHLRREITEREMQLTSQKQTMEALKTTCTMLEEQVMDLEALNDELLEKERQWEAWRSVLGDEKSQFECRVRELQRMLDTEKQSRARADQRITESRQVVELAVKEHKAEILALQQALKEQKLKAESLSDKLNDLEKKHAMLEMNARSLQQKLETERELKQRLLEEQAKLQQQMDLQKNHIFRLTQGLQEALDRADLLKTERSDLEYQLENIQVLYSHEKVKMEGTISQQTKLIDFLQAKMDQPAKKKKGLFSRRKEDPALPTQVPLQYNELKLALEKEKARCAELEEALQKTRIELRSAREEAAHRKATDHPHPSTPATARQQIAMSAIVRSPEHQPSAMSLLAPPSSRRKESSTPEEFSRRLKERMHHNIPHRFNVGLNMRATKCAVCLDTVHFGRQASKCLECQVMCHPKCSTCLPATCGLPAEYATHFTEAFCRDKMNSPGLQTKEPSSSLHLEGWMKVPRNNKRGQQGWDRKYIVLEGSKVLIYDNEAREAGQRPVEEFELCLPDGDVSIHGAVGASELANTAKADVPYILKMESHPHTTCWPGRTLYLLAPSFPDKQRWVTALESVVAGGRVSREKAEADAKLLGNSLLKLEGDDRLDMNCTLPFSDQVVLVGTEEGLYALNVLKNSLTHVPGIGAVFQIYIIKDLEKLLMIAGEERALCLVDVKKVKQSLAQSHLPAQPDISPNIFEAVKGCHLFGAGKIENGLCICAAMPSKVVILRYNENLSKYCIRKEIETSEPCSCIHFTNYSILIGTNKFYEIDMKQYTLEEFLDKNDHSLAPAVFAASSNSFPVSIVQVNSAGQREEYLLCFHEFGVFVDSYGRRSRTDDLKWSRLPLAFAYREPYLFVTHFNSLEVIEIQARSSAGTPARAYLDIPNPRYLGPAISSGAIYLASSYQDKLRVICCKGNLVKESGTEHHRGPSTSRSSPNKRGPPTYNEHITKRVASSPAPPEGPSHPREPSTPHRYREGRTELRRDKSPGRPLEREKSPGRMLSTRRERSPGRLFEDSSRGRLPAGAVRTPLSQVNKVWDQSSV
ERK2, sequence (P28482 whole entry, species assumed): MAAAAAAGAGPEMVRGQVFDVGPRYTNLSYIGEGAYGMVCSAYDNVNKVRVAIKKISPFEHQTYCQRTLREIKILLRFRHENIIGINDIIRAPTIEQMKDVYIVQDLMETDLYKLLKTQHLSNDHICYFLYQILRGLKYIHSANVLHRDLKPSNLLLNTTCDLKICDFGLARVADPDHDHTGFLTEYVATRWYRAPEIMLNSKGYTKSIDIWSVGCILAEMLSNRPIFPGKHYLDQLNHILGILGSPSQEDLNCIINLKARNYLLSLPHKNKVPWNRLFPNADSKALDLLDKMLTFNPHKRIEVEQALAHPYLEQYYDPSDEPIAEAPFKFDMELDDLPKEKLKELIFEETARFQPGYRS
TYK2, sequence (P29597 whole entry): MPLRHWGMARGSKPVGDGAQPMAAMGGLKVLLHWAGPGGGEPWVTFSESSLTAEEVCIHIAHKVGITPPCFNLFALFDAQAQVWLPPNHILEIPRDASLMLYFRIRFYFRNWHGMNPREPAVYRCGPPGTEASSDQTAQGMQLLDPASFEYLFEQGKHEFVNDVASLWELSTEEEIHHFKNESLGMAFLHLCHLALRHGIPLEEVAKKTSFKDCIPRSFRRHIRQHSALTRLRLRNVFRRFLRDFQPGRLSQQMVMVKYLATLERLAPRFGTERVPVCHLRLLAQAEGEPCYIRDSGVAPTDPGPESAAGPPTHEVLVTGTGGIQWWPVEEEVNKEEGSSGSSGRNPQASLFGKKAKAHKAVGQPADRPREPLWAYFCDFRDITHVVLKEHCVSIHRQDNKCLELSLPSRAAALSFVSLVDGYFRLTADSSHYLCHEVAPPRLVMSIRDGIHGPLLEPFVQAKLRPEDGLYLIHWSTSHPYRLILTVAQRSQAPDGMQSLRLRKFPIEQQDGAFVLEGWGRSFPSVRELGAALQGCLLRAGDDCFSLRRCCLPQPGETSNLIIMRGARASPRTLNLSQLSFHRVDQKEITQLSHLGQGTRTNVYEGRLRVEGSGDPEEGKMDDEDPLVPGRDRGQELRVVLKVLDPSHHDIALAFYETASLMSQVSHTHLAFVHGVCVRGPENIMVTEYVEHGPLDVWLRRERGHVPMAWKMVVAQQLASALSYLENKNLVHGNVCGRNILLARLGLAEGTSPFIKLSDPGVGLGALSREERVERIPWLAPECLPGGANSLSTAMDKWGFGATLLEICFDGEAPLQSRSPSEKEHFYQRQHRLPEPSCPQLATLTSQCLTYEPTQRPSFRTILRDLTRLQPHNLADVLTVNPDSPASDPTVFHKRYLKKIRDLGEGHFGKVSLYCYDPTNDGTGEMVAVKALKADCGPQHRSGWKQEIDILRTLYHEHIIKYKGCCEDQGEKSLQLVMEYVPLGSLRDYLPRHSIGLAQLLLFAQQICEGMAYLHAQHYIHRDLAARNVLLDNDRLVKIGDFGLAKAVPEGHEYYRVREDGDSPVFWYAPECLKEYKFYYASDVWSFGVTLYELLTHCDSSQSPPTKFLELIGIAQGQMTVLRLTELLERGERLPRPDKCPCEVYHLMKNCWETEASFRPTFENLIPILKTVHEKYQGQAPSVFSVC
MAP4K5, sequence (Q9Y4K4 whole entry): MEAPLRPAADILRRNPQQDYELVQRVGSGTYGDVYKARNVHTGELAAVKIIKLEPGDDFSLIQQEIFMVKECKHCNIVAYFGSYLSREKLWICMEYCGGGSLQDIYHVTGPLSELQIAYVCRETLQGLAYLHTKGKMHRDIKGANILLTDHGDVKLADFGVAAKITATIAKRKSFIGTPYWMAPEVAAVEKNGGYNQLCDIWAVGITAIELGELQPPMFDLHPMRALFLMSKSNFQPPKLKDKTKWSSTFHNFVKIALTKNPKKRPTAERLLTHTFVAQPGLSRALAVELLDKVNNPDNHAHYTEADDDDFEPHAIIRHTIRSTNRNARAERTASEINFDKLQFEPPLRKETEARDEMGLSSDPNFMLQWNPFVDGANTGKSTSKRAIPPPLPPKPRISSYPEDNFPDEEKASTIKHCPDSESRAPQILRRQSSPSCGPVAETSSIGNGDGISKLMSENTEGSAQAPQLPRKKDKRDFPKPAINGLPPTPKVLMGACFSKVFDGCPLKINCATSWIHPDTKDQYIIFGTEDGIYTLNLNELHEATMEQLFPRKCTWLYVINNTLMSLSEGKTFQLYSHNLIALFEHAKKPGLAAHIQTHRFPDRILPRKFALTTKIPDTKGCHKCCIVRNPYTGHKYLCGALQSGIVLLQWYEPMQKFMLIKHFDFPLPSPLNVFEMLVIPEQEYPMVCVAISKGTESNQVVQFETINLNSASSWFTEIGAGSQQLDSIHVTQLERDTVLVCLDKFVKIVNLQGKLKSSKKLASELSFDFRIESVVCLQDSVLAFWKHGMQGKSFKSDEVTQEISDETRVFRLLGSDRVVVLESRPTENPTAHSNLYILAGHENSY
CSNK1G2, sequence (P78368 whole entry): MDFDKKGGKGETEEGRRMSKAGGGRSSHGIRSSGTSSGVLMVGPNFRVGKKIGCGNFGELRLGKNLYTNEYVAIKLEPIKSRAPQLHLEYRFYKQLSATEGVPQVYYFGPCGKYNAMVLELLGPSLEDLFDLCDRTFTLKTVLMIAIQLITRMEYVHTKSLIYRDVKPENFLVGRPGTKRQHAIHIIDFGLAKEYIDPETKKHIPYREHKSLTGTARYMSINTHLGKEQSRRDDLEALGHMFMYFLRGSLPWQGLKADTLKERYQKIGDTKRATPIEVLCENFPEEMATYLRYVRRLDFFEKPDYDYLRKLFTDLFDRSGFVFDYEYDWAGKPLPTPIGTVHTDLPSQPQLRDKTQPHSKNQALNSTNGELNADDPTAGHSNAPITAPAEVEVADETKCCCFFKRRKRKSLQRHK

CNC(=O)NC[C@H]1O[C@@H](n2cnc3c(NC(=O)Nc4ccccc4)ncnc32)[C@H](O[Si](C)(C)C(C)(C)C)[C@@H]1CC(=O)N(C)OC [Compound 13, 2′-O-(tert-Butyldimethylsilyl)-3′,5′-dideoxy-3′-[(N-methoxy-N-methylcarboxamido)methyl]-5′-[(N-methylcarbamoyl)amino]-N^6-(N-phenylcarbamoyl)adenosine]
TGI (SR [1]): 3.46E−6 Molar | Percent Growth (SR [1]; Log10 Concentration −4.0): −56% | Percent Growth (SR [1]; Log10 Concentration −5.0): −53% | Percent Growth (SR [1]; Log10 Concentration −6.0): 62% | Percent Growth (SR [1]; Log10 Concentration −7.0): 89% | Percent Growth (SR [1]; Log10 Concentration −8.0): 85% | TGI (HL-60(TB) [2]): 4.34E−6 Molar | Percent Growth (HL-60(TB) [2]; Log10 Concentration −4.0): −58% | Percent Growth (HL-60(TB) [2]; Log10 Concentration −5.0): −48% | Percent Growth (HL-60(TB) [2]; Log10 Concentration −6.0): 84% | Percent Growth (HL-60(TB) [2]; Log10 Concentration −7.0): 86% | Percent Growth (HL-60(TB) [2]; Log10 Concentration −8.0): 95% | GI50 (HS 578T [3]): 5.79 µM | CC50 (HS 578T [3]): > 100 µM | TGI (SW-620 [4]): >1.00E−4 Molar | Percent Growth (SW-620 [4]; Log10 Concentration −4.0): 50% | Percent Growth (SW-620 [4]; Log10 Concentration −5.0): 65% | Percent Growth (SW-620 [4]; Log10 Concentration −6.0): 93% | Percent Growth (SW-620 [4]; Log10 Concentration −7.0): 102% | Percent Growth (SW-620 [4]; Log10 Concentration −8.0): 99% | TGI (K-562 [5]): >1.00E−4 Molar | Percent Growth (K-562 [5]; Log10 Concentration −4.0): 24% | Percent Growth (K-562 [5]; Log10 Concentration −5.0): 17% | Percent Growth (K-562 [5]; Log10 Concentration −6.0): 82% | Percent Growth (K-562 [5]; Log10 Concentration −7.0): 95% | Percent Growth (K-562 [5]; Log10 Concentration −8.0): 95% | GI50 (SR [6]): 1.27 µM | CC50 (SR [6]): 9.43 µM | TGI (SK-MEL-28 [7]): >1.00E−4 Molar | Percent Growth (SK-MEL-28 [7]; Log10 Concentration −4.0): 27% | Percent Growth (SK-MEL-28 [7]; Log10 Concentration −5.0): 44% | Percent Growth (SK-MEL-28 [7]; Log10 Concentration −6.0): 101% | Percent Growth (SK-MEL-28 [7]; Log10 Concentration −7.0): 106% | Percent Growth (SK-MEL-28 [7]; Log10 Concentration −8.0): 97% | GI50 (SK-MEL-28 [8]; SK-MEL-28): 7.77 µM | CC50 (SK-MEL-28 [8]; SK-MEL-28, read-out: LC50): > 100 µM | CC50 (cells; 786-0, read-out: LC50): > 100 µM | GI50 (SW-620 [9]; SW-620): > 100 µM | CC50 (SW-620 [9]; SW-620, read-out: LC50): > 100 µM | TGI (MOLT-4 [10]): 9.36E−6 Molar | Percent Growth (MOLT-4 [10]; Log10 Concentration −4.0): −5% | Percent Growth (MOLT-4 [10]; Log10 Concentration −5.0): −2% | Percent Growth (MOLT-4 [10]; Log10 Concentration −6.0): 78% | Percent Growth (MOLT-4 [10]; Log10 Concentration −7.0): 90% | Percent Growth (MOLT-4 [10]; Log10 Concentration −8.0): 96% | GI50 (MOLT-4 [11]; MOLT-4): 2.23 µM | CC50 (MOLT-4 [11]; MOLT-4, read-out: LC50): > 100 µM | CC50 [12]: > 100 µM | GI50 (K-562 [13]; K562): 3.12 µM | CC50 (K-562 [13]; K562, read-out: LC50): > 100 µM | TGI (HS 578T [14]): >1.00E−4 Molar | Percent Growth (HS 578T [14]; Log10 Concentration −4.0): 12% | Percent Growth (HS 578T [14]; Log10 Concentration −5.0): 40% | Percent Growth (HS 578T [14]; Log10 Concentration −6.0): 82% | Percent Growth (HS 578T [14]; Log10 Concentration −7.0): 98% | Percent Growth (HS 578T [14]; Log10 Concentration −8.0): 98% | GI50 (HL-60(TB) [15]; HL-60): 1.81 µM | CC50 (HL-60(TB) [15]; HL-60, read-out: LC50): 16.4 µM

CNC(=O)NC[C@H]1O[C@@H](n2cnc3c(NC(=O)Nc4ccccc4)ncnc32)C(O[Si](C)(C)C(C)(C)C)[C@H]1O[Si](C)(C)C(C)(C)C (stereo partly drawn) [Compound 25, 2′,3′-Bis-O-(tert-butyldimethylsilyl)-5-deoxy-5′-[(N-methylcarbamoyl)amino]-N^6-(N-phenylcarbamoyl)adenosine]
TGI (MDA-MB-468): 1.39E−5 Molar | GI50 (MDA-MB-468; Homo sapiens): 3.35 µM | IC50 (MDA-MB-468; Homo sapiens): > 100 µM | Percent Growth (MDA-MB-468; Log10 Concentration −4.0 Molar): −35% | Percent Growth (MDA-MB-468; Log10 Concentration −5.0 Molar): 5% | Percent Growth (MDA-MB-468; Log10 Concentration −6.0 Molar): 99% | Percent Growth (MDA-MB-468; Log10 Concentration −7.0 Molar): 104% | Percent Growth (MDA-MB-468; Log10 Concentration −8.0 Molar): 101% | TGI (PC-3 [16]): >1.00E−4 Molar | Percent Growth (PC-3 [16]; [18]): 4% | Percent Growth (PC-3 [16]; [19]): 6% | Percent Growth (PC-3 [16]; [20]): 83% | Percent Growth (PC-3 [16]; [21]): 91% | Percent Growth (PC-3 [16]; [22]): 93% | GI50 (PC-3 [17]; PC-3): 2.69 µM | IC50 (PC-3 [17]; PC-3): > 100 µM

CCOC(=O)C[C@@H]1C(O[Si](C)(C)C(C)(C)C)[C@H](n2cnc3c(NC(=O)Nc4ccccc4)ncnc32)O[C@@H]1CNC(=O)NC (stereo partly drawn) [Compound 10]
TGI (SR [1]; 48 h): 7.07E−6 Molar | Percent Growth (SR [1]; [18]): −34% | Percent Growth (SR [1]; [19]): −15% | Percent Growth (SR [1]; [20]): 85% | Percent Growth (SR [1]; [21]): 70% | Percent Growth (SR [1]; [22]): 82% | Percent Growth (HL-60(TB) [2]; [18]): 22% | Percent Growth (HL-60(TB) [2]; [19]): −5% | Percent Growth (HL-60(TB) [2]; [20]): 101% | Percent Growth (HL-60(TB) [2]; [21]): 110% | Percent Growth (HL-60(TB) [2]; [22]): 85% | GI50 (HS 578T [3]; 48 h): 3.6 µM | CC50 (HS 578T [3]; 48 h): > 100 µM | inhibition at 10 µM (PHKG2): 20 to 29% | inhibition at 10 µM (ERK2): 20 to 29% | inhibition at 10 µM (EGFR): 30% | inhibition at 10 µM (TYK2): 31% | TGI (SW-620 [4]; 48 h): 2.84E−5 Molar | Percent Growth (SW-620 [4]; [18]): −33% | Percent Growth (SW-620 [4]; [19]): 28% | Percent Growth (SW-620 [4]; [20]): 97% | Percent Growth (SW-620 [4]; [21]): 94% | Percent Growth (SW-620 [4]; [22]): 97% | TGI (K-562 [5]; 48 h): 3.29E−5 Molar | Percent Growth (K-562 [5]; [18]): −17% | Percent Growth (K-562 [5]; [19]): 19% | Percent Growth (K-562 [5]; [20]): 89% | Percent Growth (K-562 [5]; [21]): 93% | Percent Growth (K-562 [5]; [22]): 96% | GI50 (SR [6]; 48 h): 2.23 µM | CC50 (SR [6]; 48 h): > 100 µM | TGI (SK-MEL-28 [7]; 48 h): 2.02E−5 Molar | Percent Growth (SK-MEL-28 [7]; [18]): −91% | Percent Growth (SK-MEL-28 [7]; [19]): 40% | Percent Growth (SK-MEL-28 [7]; [20]): 100% | Percent Growth (SK-MEL-28 [7]; [21]): 106% | Percent Growth (SK-MEL-28 [7]; [22]): 104% | inhibition at 10 µM (MAP4K5): 20 to 29% | GI50 (SK-MEL-28 [8]; SK-MEL-28, 48 h): 6.85 µM | CC50 (SK-MEL-28 [8]; SK-MEL-28, 48 h, read-out: LC50): 48.7 µM | inhibition at 10 µM (CIT): 20 to 29% | CC50 (cells; 48 h, read-out: LC50): 17.9 µM | GI50 (SW-620 [9]; SW-620, 48 h): 4.8 µM | CC50 (SW-620 [9]; SW-620, 48 h, read-out: LC50): > 100 µM | inhibition at 10 µM (CSNK1G2): 38% | TGI (MOLT-4 [10]; 48 h): 2.33E−5 Molar | Percent Growth (MOLT-4 [10]; [18]): −14% | Percent Growth (MOLT-4 [10]; [19]): 8% | Percent Growth (MOLT-4 [10]; [20]): 76% | Percent Growth (MOLT-4 [10]; [21]): 84% | Percent Growth (MOLT-4 [10]; [22]): 93% | TGI (PC-3 [16]; 48 h): 4.85E−6 Molar | Percent Growth (PC-3 [16]; [18]): −77% | Percent Growth (PC-3 [16]; [19]): −47% | Percent Growth (PC-3 [16]; [20]): 103% | Percent Growth (PC-3 [16]; [21]): 126% | Percent Growth (PC-3 [16]; [22]): 121% | GI50 (MOLT-4 [11]; MOLT-4, 48 h): 2.39 µM | CC50 (MOLT-4 [11]; MOLT-4, 48 h, read-out: LC50): > 100 µM | inhibition at 10 µM (TYK2(Kin.Dom.1)): 20 to 29% | CC50 [12]: > 100 µM | GI50 (K-562 [13]; K562, 48 h): 3.59 µM | CC50 (K-562 [13]; K562, 48 h, read-out: LC50): > 100 µM | TGI (HS 578T [14]; 48 h): 5.36E−5 Molar | Percent Growth (HS 578T [14]; [18]): −7% | Percent Growth (HS 578T [14]; [19]): 18% | Percent Growth (HS 578T [14]; [20]): 90% | Percent Growth (HS 578T [14]; [21]): 95% | Percent Growth (HS 578T [14]; [22]): 94% | GI50 (HL-60(TB) [15]; HL-60, 48 h): 3.01 µM | CC50 (HL-60(TB) [15]; HL-60, 48 h, read-out: LC50): > 100 µM | GI50 (PC-3 [17]; PC-3, 48 h): 2.25 µM | CC50 (PC-3 [17]; PC-3, 48 h, read-out: LC50): 12.5 µM
